Test results published in publication PMC10628858, “Investigation of new ferrocenyl-artesunate derivatives as antiparasitics” (Dalton Transactions (Cambridge, England : 2003), 2023).
Values joined by “and” are separate entries in the source; they are usually repeats but may differ in a detail not shown here. Identical values can stand only once. Like-named read-outs stand apart in the source and are kept apart here.

Experiments:
P. falciparum, NF54 = assay: P. falciparum growth inhibition assay (Malstat); format: cell-based, Plasmodium falciparum; settings: 72 h, maximum concentration tested 6000 nM, three independent experiments in triplicate, ± SEM, read-out: IC50 against P. falciparum, NF54
Description: The antimalarial activities of C1 to C4 and F1 to F3 were determined against the wild-type drug sensitive strain of P. falciparum, NF54. […]. Further, a close link between activity and oxidation potentials of the drugs was found. The lower the oxidation potential of the ferrocene moiety, the higher the activity of the final compound, giving directions for future compound development.
The drugs were prepared as 10 mM stocks in sterile DMSO. The drugs were then diluted using freshly prepared growth medium to the desired testing concentrations. Chloroquine and artesunate were used as standards. A full dose–response was preformed using a 96-well plate assay and the IC50 values determined. The maximum concentration tested was 6 μM which was then serially diluted 2-fold in growth media. The plates were incubated at 37 °C for 72 h at 3% O2 and 4% CO2. After 72 h the wells were resuspended and 15 μL of the suspension was transferred to a duplicate plate containing 100 μL of Malstat reagent and 25 μL of nitroblue tetrazolium solution. The plates were allowed 20 minutes in the dark to develop and the absorbance of each well was measured using UV-Vis at 620 nm.

[1] = Cyclic voltammetry (oxidation/reduction potentials); format: physicochemical; settings: Ag/AgCl electrode, scan rate 100 mV s^−1, 0.100 M [NBu4][PF6] in MeCN
[2] = tested on: clinically resistance (CQ-R) isolates of P. falciparum; design: method as in PMID 21894260; settings: cited from earlier work
[3] = Kinetic aqueous solubility, turbidimetric assay; format: physicochemical; settings: for solubility at 4 h: aqueous buffer, kinetic from dmso stock, absorbance 620 nm
Description: The kinetic solubility of the complexes was determined by means of a turbidimetric assay. The complexes were first dissolved in dimethyl sulfoxide (DMSO) which was then serially diluted in either phosphate buffered saline (PBS) or 4-(2-hydroxyethyl)-1-piperazineethanesulfonic acid (HEPES). The extent of precipitation was then measured using the absorbance at 620 nm.
PBS was prepared by dissolving one PBS tablet in 200 mL of distilled water at 25 °C yielding a buffered solution containing 10 mM phosphate buffer, 3.0 mM KCl and 140 mM NaCl. The pH was then confirmed to be at 7.4 with a pH meter. A 0.025 M HEPES buffer was prepared by dissolving HEPES free acid 5.00 mmol in distilled water (±180 mL) and titrating the solution with 0.100 M NaOH until a pH 7 was reached, the volume was then made up to 200 mL using distilled water. A 10.0 mM stock of each drug was prepared in DMSO. […] 4 μL of the drugs was then pipetted into a 96-well plate loaded with 196 μL of either the desired buffer solution or DMSO. The test plates were then incubated at 37 °C for 4 hours following which the UV-Vis absorbance was measured at 620 nm and the absorbances corrected by subtracting the blank.

[4] = Aqueous stability (hydrolysis) by UV-Vis kinetic scan in 10% MeOH (aq); format: physicochemical; settings: change in absorbance at 254 nm over one hour, ExpDec1 fit
Description: Since biological systems are comprised of water, the behavior and stability of a drug in aqueous media is important. To determine the stability, each complex was dissolved in MeOH and then diluted to 10% MeOH (aq). The solutions were then monitored by UV-Vis spectroscopy using a kinetic scan in the range 190–1100 nm over 1 hour. […] Hydrolysis was also supported by RP-HPLC in which new peaks emerged corresponding to the starting ferrocene precursors, F2 and F4. […] […] The major difference being between C1/C2 and C3/C4 is the nature of the linkage either being an ester or an amide bond. It is expected that the hydrolysis of C2 would occur quicker due to the more labile nature of the ester bond.
UV-Vis studies were performed by dissolving each complex in methanol to a concentration of 1 mM. This was then diluted using distilled water in a 10% methanol/water mixture giving a final concentration of 100 μM. The complexes were then monitored using a kinetic scan between the range 190–1100 nm scanning each minute over the course of one hour. […]

HEK293 cells = assay: MTT cell viability assay, HEK293; format: cell-based, human; settings: 48 h
Description: (§1) To assess the cytotoxicity of the four compounds a MTT cell viability assay using human embryonic kidney (HEK293) and human prostatic (PNT1A) cell lines were performed. […] The long chain compounds C1 and C3 were also shown to be non-cytotoxic towards the HEK293 cell line.
(§2) The immortalised human prostatic epithelial cell line, PNT1A (Sigma Aldrich, 95012614) was cultured in RPMI-1640 containing 10% foetal calf serum (Life Technologies, South Africa). The human embryonic kidney cell line HEK293 (ATCC) was cultured in DMEM (Life Technologies, South Africa). Both cell lines were cultured at 37 °C under 5% CO2 with 1% penicillin and streptomycin. Cancer cell cytotoxicity was evaluated using the MTT viability assay according to our previous method.[49] Briefly, cells were seeded at a density of 3 × 10^3 cells per well in 96-well plates and allowed to settle overnight. A 100 mM stock of C1/C2 and a 50 mM stock solution of C3/C4 in DMSO was prepared from which dilutions were made. The compound was then added to the cells in triplicate to obtain the indicated concentrations and 0.1% DMSO. Controls included cells treated with […] DMSO alone. After 48 h, 10 μL of 5 mg mL^−1 MTT (3-(4,5-dimethylthiazol-2-yl)-2,5-diphenyltetrazolium bromide) (Sigma-Aldrich) was added, and incubated with the cells for 4 h, followed by addition of 100 μL 10% SLS, 0.01 M HCL. The plates were read at 595 nm on a Multiscan FC plate reader (Thermo Scientific) and the data was fitted to a variable slope dose–response curve using Graphpad prism v6 to obtain the cytotoxicity IC50. The assay was repeated independently three times where inhibition was observed.

PNT1A cells = assay: MTT cell viability assay, PNT1A; format: cell-based, human; settings: 48 h
Description: as §1, §2

[5] = tested on: T. gondii (ΔKu80::mNeonGreen); assay: T. gondii growth inhibition assay (mNeonGreen fluorescence); format: cell-based, Toxoplasma gondii
Description: […]. The rate of hydrolysis of C2 and C4 is closely correlated to the activity seen against T. gondii, such that the more readily the complex separates into its constituents, parts the better the overall activity.
To further investigate whether the accumulation of ROS was implicated in the MoA, the growth inhibition studies were repeated in the presence of the ROS scavenger N-acetyl cysteine (NAC) (Table 5).
Growth inhibition assays were performed in black, clear-bottomed 96 well plates preseeded with Human foreskin fibroblasts (HFFs) as described previously.[48] ΔKu80:mNeonGreen T. gondii were counted using a hemeocytometer and media from the host-cell seeded plate was aspirated and replaced with either 200 μL of D3 or 200 μL of media + 5000 parasites per well. Infected cells were incubated for 2 hours at 37 °C with 5% CO2 to allow for invasion. Following this, the media was removed and replaced with 100 μL fresh media. 100 μL of media containing 100 μM of the indicated drug in sterile DMSO was added and serially diluted. The parasites were then incubated for four days at 37 °C with 5% CO2 then flourescense read using the PHERAstar microplate reader. After removal of background, fluorescence values were normalised to untreated and plotted. Data analysis and non-linear regression was performed in Prism.

T. gondii [6] = assay: Determination of intracellular ROS levels with CellROX by flow cytometry; format: cell-based, Toxoplasma gondii; settings: 5 μM, 6 hours, 50 000 parasites, vs untreated
Description: Since both ferrocene and artesunate are able to generate ROS, we attempted to quantify the intracellular ROS levels in the parasite using CellROX, a compound which fluoresces in the presence of ROS. Treatment with artesunate was included as positive control as previous studies have linked artesunate treatment to ROS accumulation.[44] The parasites were treated with 5 μM of complexes C1, C3 and C4, and incubated for 6 hours. […] Since T. gondii rely predominately on heme biosynthesis as opposed to incorporation of heme from host hemoglobin, the concentration of iron present in the parasite is lower.[45] But, by incorporating an iron center in the molecule the slower activation may be circumvented leading to quicker cell death and a decreased CellROX reading.
Fig. 5 CellROX fluorescence quantified by flow cytometry from 50 000 parasites. T. gondii were untreated (grey) or treated for 6 hours with 5 μM compounds (blue) or artesunate (red) as a positive control.
Intracellular parasites were treated with 5 μM of the drug and incubated at 37 °C with 5% CO2 for either 18 hours or 6 hours. The parasites were released from host cells by scraping and syringing followed by passing through 3 μm filters to remove host-cell debris. The parasites were spun down at 6000 RPM for 10 minutes and resuspended in 500 μL PBS. 100 μL of the parasite suspension was placed in a FACS tube and a stock solution of CellROX dye in PBS (1 : 125 dilution) was added to this. This was then incubated in the dark at 37 °C for 1 hour and then read using a BD Celesta. Parasites were gated on forward and side scatter and on mNeonGreen fluorescence and histograms of Cy5 signal presented. Data analysis was performed using Flowjo.

T. gondii [7] = tested on: T. gondii; design: method as in PMID 32968076; settings: read-out: IC50 against T. gondii; cited from earlier work

Q: For `NCCNC(=O)[c-]1cccc1.[Fe+2].c1cc[cH-]c1` [Compound F3, N-(2-aminoethyl)ferrocenamide], which IC50 (P. falciparum, NF54) is on record?
A: > 6000 nM

Q: For `[Fe+2].c1cc[cH-]c1.c1cc[cH-]c1` [Ferrocene, reference compound], which “E 1/2” value [1] is on record?
A: 0.446 V

Q: And the “E Ox” value [1]?
A: 0.499 V

Q: What about the “E Red” value [1] of the same compound?
A: 0.393 V

Q: And the ΔE [1]?
A: 0.106 V

Q: For `CN(C)Cc1ccc[c-]1CNc1ccnc2cc(Cl)ccc12.[Fe+2].c1cc[cH-]c1` (centres unmarked) [Ferroquine, ferroquine], which “Activity against CQ-R isolates of P. falciparum” value [2] is on record?
A: less than 30 nM

Q: Which “Solubility range” value ([3]; turbidimetric assay, buffer not named) does the source give for `CC1CCC2C(C)C(OC(=O)CCC(=O)OC[c-]3cccc3)OC3OC4(C)CCC1C32OO4.[Fe+2].c1cc[cH-]c1` (centres unmarked) [Compound C2] here?
A: 23 to 47 µg/mL

Q: What about the IC50 (P. falciparum, NF54) of the same compound?
A: 19 ± 4 nM

Q: What about the Half-life [4] of the same compound?
A: 3.0 ± 0.16 min

Q: And the “Rate constant (hydrolysis)” value [4]?
A: 0.23 ± 0.013 min⁻¹

Q: What about the IC50 (HEK293 cells) of the same compound?
A: 53000 ± 5700 nM

Q: And the IC50 (PNT1A cells)?
A: > 100000 nM

Q: What about the IC50 ([5]; four days, in HFF host cells, three independent experiments in triplicate, ± SEM, read-out: IC50 against T. gondii) of the same compound?
A: 280 ± 22 nM

Q: And the “E 1/2” value [1]?
A: 0.503 V

Q: What about the “E Ox” value [1] of the same compound?
A: 0.561 V

Q: And the “E Red” value [1]?
A: 0.445 V

Q: And the ΔE [1]?
A: 0.116 V

Q: Which results are given for `C[C@H]1[C@H](OC(=O)CCC(=O)O)O[C@@H]2O[C@@]3(C)CC[C@H]4[C@H](C)CC[C@@H]1[C@@]24OO3` [Artesunate, artesunate]?
A: IC50 (P. falciparum, NF54; Plasmodium falciparum, NF54): 3 ± 1 nM; Change in CellROX signal (intracellular ROS) (T. gondii [6]): increase; IC50 ([5]; Toxoplasma gondii, 96 h, read-out: IC50 against T. gondii): 200 ± 6 nM; IC50 ([5]; Toxoplasma gondii, read-out: IC50 + NAC against T. gondii): 310 ± 28 nM

Q: For `OC[c-]1cccc1.[Fe+2].c1cc[cH-]c1` [Compound F2, ferrocene methanol], which IC50 (P. falciparum, NF54) is on record?
A: 3400 ± 96 nM

Q: With `O=C(NCCO)[c-]1cccc1.[Fe+2].c1cc[cH-]c1` [Compound F1, N-(Hydroxyethyl)ferrocenamide] as the compound, how does the IC50 (P. falciparum, NF54) read?
A: > 6000 nM

Q: With `C[C@H]1[C@@H](O)O[C@@H]2O[C@@]3(C)CC[C@H]4[C@H](C)CC[C@@H]1[C@@]24OO3` [DHA, dihydroartemisinin] as the compound, how does the IC50 (T. gondii [7]) read?
A: ~66 nM

Q: What does the source list for `COC(=O)[C@H]1[C@H]2C[C@@H]3c4[nH]c5cc(OC)ccc5c4CCN3C[C@H]2C[C@@H](OC(=O)c2cc(OC)c(OC)c(OC)c2)[C@@H]1OC` [Reserpine, reference compound]?
A: solubility at 4 h ([3]; HEPES buffer with 2% DMSO, HEPES pH 7, 37 °C, read-out: Aqueous solubility range, HEPES): 40 µM to 80 µM and 24 µg/mL to 50 µg/mL; solubility at 4 h ([3]; phosphate buffered saline (PBS) with 2% DMSO, PBS pH 7.4, 37 °C, read-out: Aqueous solubility range, PBS): 20 µM to 40 µM and 12 µg/mL to 24 µg/mL
